According to US20100311726A1, “REDUCTION OF BETA-AMYLOID LEVELS BY TREATMENT WITH THE SMALL MOLECULE DIFFERENTIATION-INDUCING FACTOR” (priority 2007, published 2010):

How the values were obtained:
Aβ40 = experiment: Secreted Aβ40 sandwich ELISA of conditioned media; format: cell-based, human
Protocol: The levels of secreted Aβ from CHO-7W cells stably overexpressing APP^751 and CHO-CAB cells that overexpress APP^751 and human BACE1 was quantified by ELISA and viewed by western blot using the monoclonal anti-APP antibody (6E10) that recognizes residues 1-17 of Aβ. Cells (5×10^5) were deposited into 6-well tissue culture dishes in triplicate and allowed to settle and grow for 24 hours. At this time, the media was aspirated and the cells were washed 2× in warm PBS. Fresh media (2 mL) and media supplemented with vehicle or DIF-1 was added to each well. […] Since DIF-1 exerts a cytostatic effect, the cell number was counted for all treatments upon removal of the conditioned media and used to normalize the levels of Aβ. […] The concentration of Aβ40 and Aβ42 was subsequently detected in triplicate using the β-Amyloid 1-40 or 1-42 Colorimetric ELISA kit (Biosource International, Inc.) according to the manufacturer's instructions.
We then looked at what effect this had on the levels of secreted soluble APP and Aβ production. […] The conditioned media was analyzed using anti-APP antibody 6E10 in order to detect total βP levels and sαAPP levels since it recognizes the amino acids 1-17 of Aβ and thus cannot detect sβAPP. […] The blots were analyzed using a phosphorimager. […]

APP ubiquitin-conjugates = APP ubiquitin-conjugates by immunoprecipitation and western blot; settings: CHO-CAB
Protocol: For immunoprecipitations, 1 mg of total protein was diluted with extraction buffer and precleared with protein G-conjugated agarose beads (Pierce). The precleared samples were incubated overnight with anti-APP antibodies or nonimmune IgG (Jackson Laboratories). Immunocomplexes were captured with Protein G agarose beads, washed five times with extraction buffer and heated for 5 min at 95° C. in SDS gel-loading buffer.
CHO-CAB cell protein extracts (1 mg) were immunoprecipitated using APP antibodies. The immunoprecipitated complexes were analyzed by western blotting using anti-ubiquitin antibodies. […] Molecular Weight markers (kDa) are shown on the left. GAPDH levels are shown below each blot. The data represents that of three separate experiments.
To determine whether the proteasome-mediated degradation of APP is accompanied by increased levels of poly-ubiquitinated APP, we investigated the ubiquitination status of APP in extracts of CHO-CAB cells treated in the absence or presence of DIF-1 (30 μM), lactacystin (10 μM), ALLN (10 μM), DIF-1+lactacystin and DIF-1+ALLN.

SMILES: CCCCCC(=O)c1c(O)c(Cl)c(OC)c(Cl)c1O [DIF-1, 1-[3,5-dichloro-2,6-dihydroxy-4-methoxyphenyl]-1-hexanone]
- reduction of secreted Aβ40 (Aβ40; CHO-7W, 30 μM overnight): about 48.5±0.91%
- reduction of secreted levels of Aβ40 (Aβ40; conditioned media from either CHO-7W or CHO-CAB cells): 44.2±3.4%
- APP ubiquitin conjugates, treatment with both lactacystin and DIF-1 (APP ubiquitin-conjugates): only slightly reduced
- APP ubiquitin-conjugates, co-treatment with ALLN (APP ubiquitin-conjugates): prevented the accumulation APP ubiqutin-conjugates
- level of APP ubiquitin-conjugates (single agent) (APP ubiquitin-conjugates; DIF-1 30 μM, lactacystin 10 μM, ALLN 10 μM): decreased levels of APP ubiquitin-conjugates
